From patent US20220119355A1, “SATURATED-RING-FUSED DIHYDROPYRIMIDINONE OR DIHYDROTRIAZINONE COMPOUNDS AND PHARMACEUTICAL USE THEREOF” (Japan Tobacco Inc., priority 2018, published 2022)

Key:
human RORγ = target: T1, human RORγ (Homo sapiens, UniProt P51449); experiment: In-vitro reporter gene assay for inhibitory activity against RORγ transcription, Test Method B (pFA/hRORγ LBD / pG5-Luc in CHO cells); format: cell-based; settings: luciferase reporter, CHO cells, 2 days
T1 construct: from Ser253 to Lys518 for human RORγ; expressed in transfected cells; host or cells: CHO cells (transient co-transfection with pG5-Luc)
T1 sequence (P51449 253-518): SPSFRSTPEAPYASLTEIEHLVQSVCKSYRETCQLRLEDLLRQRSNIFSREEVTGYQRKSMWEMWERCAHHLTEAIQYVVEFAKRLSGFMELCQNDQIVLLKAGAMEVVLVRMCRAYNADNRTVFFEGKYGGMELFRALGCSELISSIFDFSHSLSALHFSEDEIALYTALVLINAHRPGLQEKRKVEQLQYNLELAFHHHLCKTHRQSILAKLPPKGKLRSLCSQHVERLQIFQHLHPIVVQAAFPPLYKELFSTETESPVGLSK
Experimental: (§1) In-Vitro Assay for Inhibitory Activity Against RORγ Transcription
(§2) Inhibitory activity against RORγ transcription was assessed for test compounds by either of the following Test Method A or B of reporter gene assay.
(§3) cDNAs encoding human and mouse RORγ ligand binding domains (LBD) were obtained based on the sequences of human RORγ (Genbank registered number NM_005060.3) and mouse RORγ (Genbank registered number NM_011281.2) (LBD sequences: from Ser253 to Lys518 for human RORγ; from Ile251 to Lys516 for mouse RORγ).
(§4) LBD cDNAs of human and mouse RORγ were inserted into pFA-CMV vector (Agilent Technologies, Inc.), which expresses GAL4-DNA binding domain fusion protein. The resulting plasmids are hereinafter referred to as pFA/hRORγ plasmid and pFA/mRORγ plasmid, respectively.
(§5) pFA/hRORγ plasmid or pFA/mRORγ plasmid was transiently co-transfected into Chinese hamster ovary cells (CHO cells) with pG5-Luc (Promega), reporter plasmid expressing firefly luciferase in a GAL4-dependent manner.
(§6) TransIT (Registered trademark) CHO Transfection Kit (Mirus) was used to co-transfect CHO cells with the plasmids. One day prior to the assay, CHO cells were suspended in HAM F-12 Nutrient medium containing 10% (v/v) fetal bovine serum and seeded at 5.5×10^6 cells per 225 cm^2 cell culture flask each. 72 μL of TransIT (Registered trademark) CHO reagent was added into a 2 mL tube containing 1.55 mL of Opti-MEM, and then mixed and incubated at room temperature for 10 minutes. 50.4 μL of a plasmid solution containing 300 ng of pFA/hRORγ plasmid, 12000 ng of pG5-Luc plasmid, and 11700 ng of pcDNA3.1 plasmid were added into the tube and mixed gently. In the case of mouse assay, a plasmid solution containing 300 ng of pFA/mRORγ plasmid, 12000 ng of pG5-Luc plasmid, and 11700 ng of pcDNA3.1 plasmid was added, instead. The mixture was incubated at room temperature for 10 minutes. 12 μL each of CHO Mojo Reagent were then added into each tube and mixed gently. The mixture was incubated at room temperature for 10 minutes. The resulting transfection reagent was applied to the cell culture. After incubation at 37° C., 5% CO2 for 4 hours, the plasmid-transfected CHO cells were harvested by trypsin treatment. The collected cells were resuspended in culture medium and plated into a 384-well-white plate at 8,000 cells/35 μL/well. The plate was let stand at room temperature for 1 hour and then further incubated at 37° C., 5% CO2 for 3 hours. A test compound was dissolved in dimethyl sulfoxide (DMSO) to obtain a concentration of 10 mM. Each solution was serially diluted with DMSO and further diluted with culture medium just before use. The test compound solutions were added to the cells in the plate at 6 different concentrations. The final concentration of DMSO was 0.2% (v/v). After the addition of test compound, the cells were incubated at 37° C., 5% CO2 for 2 days.
(§7) RORγ transcriptional activity was detected as the intracellular luciferase activity using SteadyLite HTS Reporter Gene Assay System (Perkin Elmer). SteadyLite Reagent was diluted 2.5-fold with Extension buffer (10 mM Tricine, 0.2% (w/v) bovine serum albumin, 0.02% (v/v) Tween-20) to obtain a luciferase substrate solution. Two days after the addition of test compound, 40 μL each of the luciferase substrate solution was added into the 384-well-plate. After the incubation at room temperature for 10 minutes, luminescence of each well was measured with a microplate reader. The luciferase activity derived from the luminescence count in a vehicle-control well treated with 0.2% DMSO alone was defined as 100%, and the luciferase activity after treatment of the test compound was calculated as a percentage, %-of-control, based on the value of the vehicle-control. An EC50 value of the test compound was calculated by curve fitting. The luminescence counts at the concentration of test compound where cytotoxicity was observed were excluded from data analysis. […]

mouse RORγ = target: T2, mouse RORγ (Mus musculus, UniProt P51450); experiment: In-vitro reporter gene assay for inhibitory activity against RORγ transcription, Test Method B (pFA/mRORγ LBD / pG5-Luc in CHO cells); format: cell-based; settings: luciferase reporter, CHO cells, 2 days
T2 construct: from Ile251 to Lys516 for mouse RORγ; expressed in transfected cells; host or cells: CHO cells (transient co-transfection with pG5-Luc)
T2 sequence (P51450 251-516): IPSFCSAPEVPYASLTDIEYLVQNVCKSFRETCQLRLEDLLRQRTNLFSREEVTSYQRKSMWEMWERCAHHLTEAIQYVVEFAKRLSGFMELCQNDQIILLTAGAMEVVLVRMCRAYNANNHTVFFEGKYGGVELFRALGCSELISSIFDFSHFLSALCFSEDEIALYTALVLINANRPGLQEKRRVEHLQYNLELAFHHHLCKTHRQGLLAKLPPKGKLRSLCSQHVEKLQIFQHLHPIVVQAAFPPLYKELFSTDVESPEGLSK
Experimental: as §1, §2, §3, §4, §5, §6, §7

[1] = Non Patent Literature 33; cited from earlier work

Row | Structure (SMILES) | EC50 (human RORγ) [µM] | EC50 (mouse RORγ) [µM] | bone loss in experimental periodontitis model [1]
1 | CC(C)C1CC[C@@]2(c3ccc(CCC(C)(C)C)c(Cl)c3)NC(=O)N([C@H]3CC[C@@H](C(=O)O)C3)C=C2C1 (single isomer, unassigned) [Example 105] | 0.102 | 0.113 | –
2 | C[C@@H]1CCC2(c3ccc(CCC(C)(C)C)c(Cl)c3)NC(=O)N(C34CC(C(=O)O)(C3)C4)C=C2[C@@H]1C (single isomer, unassigned) [Example 106] | 4.4 | 4.78 | –
3 | CC1C2=CN(C34CC(C(=O)O)(C3)C4)C(=O)N[C@@]2(c2ccc(CCC(C)(C)C)c(Cl)c2)COC1(C)C (single isomer, unassigned) [Example 108] | 4.69 | 5.05 | –
4 | CC1CC[C@]2(c3ccc(CCC(C)(C)C)c(Cl)c3)NC(=O)N(C34CCC(C(=O)O)(C3)C4)C=C2C1 (single isomer, unassigned) [Example 111] | 3.45 | 3.66 | –
5 | C[C@H]1CCC2(c3ccc(C4C(C(C)(C)C)C4(F)F)c(Cl)c3)NC(=O)N(C34CCC(C(=O)O)(C3)C4)C=C2[C@@H]1C (single isomer, unassigned) [Example 116] | 0.044 | 0.101 | –
6 | CC1C2=CN(C34CC(C(=O)O)(C3)C4)C(=O)N[C@@]2(c2ccc(CCC(C)(C)C)c(Cl)c2)CCC1(C)C (single isomer, unassigned) [Example 117] | 4.68 | 5.3 | –
7 | CC1C2=CN(C34CCC(C(=O)O)(C3)C4)C(=O)N[C@@]2(c2ccc(CCC(C)(C)C)c(Cl)c2)COC1(C)C (single isomer, unassigned) [Example 119] | > 10 | > 10 | –
8 | CC1C2=CN(C34CCC(C(=O)O)(C3)C4)C(=O)N[C@]2(c2ccc(CCC(C)(C)C)c(Cl)c2)COC1(C)C (single isomer, unassigned) [Example 121] | 0.035 | 0.04 | –
9 | CCS(=O)(=O)c1ccc(CC(=O)Nc2cc(Cl)c(-c3ccccc3OC(F)(F)F)c(Cl)c2)cc1 [GSK805] | – | – | diminished bone loss

The next lines start with results.

Row | EC50 (human RORγ) [µM] | EC50 (mouse RORγ) [µM] | Structure (SMILES) | bone loss in experimental periodontitis model [1]
10 | 0.027 | 0.032 | C[C@H]1CCC2(c3ccc(CCC(C)(C)C)c(Cl)c3)NC(=O)N(C34CC(C(=O)O)(C3)C4)C=C2[C@@H]1C (single isomer, unassigned) [Example 107] | –
11 | 0.033 | 0.036 | CC1C2=CN(C34CC(C(=O)O)(C3)C4)C(=O)N[C@]2(c2ccc(CCC(C)(C)C)c(Cl)c2)COC1(C)C (single isomer, unassigned) [Example 109] | –
12 | 0.01 | 0.012 | CC1C2=CN(C34CC(C(=O)O)(C3)C4)C(=O)N[C@]2(c2ccc(CCC(C)(C)C)c(Cl)c2)COC1(C)C (single isomer, unassigned) [Example 110] | –
13 | 0.035 | 0.038 | CC1CC[C@@]2(c3ccc(CCC(C)(C)C)c(Cl)c3)NC(=O)N(C34CCC(C(=O)O)(C3)C4)C=C2C1 (single isomer, unassigned) [Example 112] | –
14 | 0.033 | 0.037 | C[C@H]1CCC2(c3ccc(C4C(C(C)(C)C)C4(F)F)c(Cl)c3)NC(=O)N(C34CC(C(=O)O)(C3)C4)C=C2[C@@H]1C (single isomer, unassigned) [Example 113] | –
15 | 0.027 | 0.05 | C[C@H]1CCC2(c3ccc(C4C(C(C)(C)C)C4(F)F)c(Cl)c3)NC(=O)N(C34CC(C(=O)O)(C3)C4)C=C2[C@@H]1C (single isomer, unassigned) [Example 114] | –
16 | 0.031 | 0.049 | C[C@H]1CCC2(c3ccc(C4C(C(C)(C)C)C4(F)F)c(Cl)c3)NC(=O)N(C34CCC(C(=O)O)(C3)C4)C=C2[C@@H]1C (single isomer, unassigned) [Example 115] | –
17 | 0.033 | 0.082 | CC1C2=CN(C34CC(C(=O)O)(C3)C4)C(=O)N[C@]2(c2ccc(CCC(C)(C)C)c(Cl)c2)CCC1(C)C (single isomer, unassigned) [Example 118] | –
18 | 0.013 | 0.02 | CC1C2=CN(C34CCC(C(=O)O)(C3)C4)C(=O)N[C@]2(c2ccc(CCC(C)(C)C)c(Cl)c2)COC1(C)C (single isomer, unassigned) [Example 120] | –
